Here are results for 37 compounds from US6218157A, “Haloacetoacetate reductase, method for producing said enzyme, and method for producing alcohols using said enzyme” (priority 1997, dated 2001).

Molecules are shown by their SMILES. Like-named read-outs stand apart in the source and are kept apart here.

What all share (type): biochemical
Test [1] has as its target T1, ethyl 4-chloroacetoacetate reductase (Kluyveromyces lactis, UniProt Q6CT25).
T1 construct: almost single band, about 190 kDa on SDS-PAGE
As to the kind of experiment: Effects of various inhibitors on the ethyl 4-chloroacetoacetate-reducing activity. On the procedure:
(§1) In these examples, the 4-haloacetoacetic acid ester-reducing activity of the enzyme of this invention was determined by allowing it to react in a reaction system containing 50 mM potassium phosphate buffer (pH 6.5), 0.2 mM NADPH, 20 mM ethyl 4-chloroacetoacetate, and the enzyme at 30° C. and measuring the decrease in the absorbance at 340 nm in proportion to the decrease of NADPH. One unit of the enzyme was defined as the amount of the enzyme to catalyze a decrease of 1 μmol of NADPH per min. Protein was quantitated by the pigment binding method using a protein assay kit manufactured by BioRad.
After the enzyme obtained in Example 1 was treated with various reagents at 30° C. for 10 min, it was assayed for the remaining activity to reduce ethyl 4chloroacetoacetate.

The target of test [2] is T1, ethyl 4-chloroacetoacetate reductase. The test is described as follows: Substrate specificity: reducing activity of the enzyme on various ketones and aldehydes. The settings on record: for Relative activity: coenzyme NADPH, ethyl 4-chloroacetoacetate-reducing activity = 100%; for Reducing activity on substrate (in words): NADPH as electron donor. On the procedure:
as §1

Test [3] has the same target. The description is as above. The settings on record: substrate 20 mM, coenzyme NAD; ethyl 4-chloroacetoacetate-reducing activity = 100%.
Setting [4] is: inhibitor 1 mM, 30° C., 10 min, standard conditions = 100%, read-out: Residual activity.
Setting [5] is: inhibitor 1 mM, 30° C., 10 min, standard conditions = 100%.

T1 sequence (Q6CT25 1-1893): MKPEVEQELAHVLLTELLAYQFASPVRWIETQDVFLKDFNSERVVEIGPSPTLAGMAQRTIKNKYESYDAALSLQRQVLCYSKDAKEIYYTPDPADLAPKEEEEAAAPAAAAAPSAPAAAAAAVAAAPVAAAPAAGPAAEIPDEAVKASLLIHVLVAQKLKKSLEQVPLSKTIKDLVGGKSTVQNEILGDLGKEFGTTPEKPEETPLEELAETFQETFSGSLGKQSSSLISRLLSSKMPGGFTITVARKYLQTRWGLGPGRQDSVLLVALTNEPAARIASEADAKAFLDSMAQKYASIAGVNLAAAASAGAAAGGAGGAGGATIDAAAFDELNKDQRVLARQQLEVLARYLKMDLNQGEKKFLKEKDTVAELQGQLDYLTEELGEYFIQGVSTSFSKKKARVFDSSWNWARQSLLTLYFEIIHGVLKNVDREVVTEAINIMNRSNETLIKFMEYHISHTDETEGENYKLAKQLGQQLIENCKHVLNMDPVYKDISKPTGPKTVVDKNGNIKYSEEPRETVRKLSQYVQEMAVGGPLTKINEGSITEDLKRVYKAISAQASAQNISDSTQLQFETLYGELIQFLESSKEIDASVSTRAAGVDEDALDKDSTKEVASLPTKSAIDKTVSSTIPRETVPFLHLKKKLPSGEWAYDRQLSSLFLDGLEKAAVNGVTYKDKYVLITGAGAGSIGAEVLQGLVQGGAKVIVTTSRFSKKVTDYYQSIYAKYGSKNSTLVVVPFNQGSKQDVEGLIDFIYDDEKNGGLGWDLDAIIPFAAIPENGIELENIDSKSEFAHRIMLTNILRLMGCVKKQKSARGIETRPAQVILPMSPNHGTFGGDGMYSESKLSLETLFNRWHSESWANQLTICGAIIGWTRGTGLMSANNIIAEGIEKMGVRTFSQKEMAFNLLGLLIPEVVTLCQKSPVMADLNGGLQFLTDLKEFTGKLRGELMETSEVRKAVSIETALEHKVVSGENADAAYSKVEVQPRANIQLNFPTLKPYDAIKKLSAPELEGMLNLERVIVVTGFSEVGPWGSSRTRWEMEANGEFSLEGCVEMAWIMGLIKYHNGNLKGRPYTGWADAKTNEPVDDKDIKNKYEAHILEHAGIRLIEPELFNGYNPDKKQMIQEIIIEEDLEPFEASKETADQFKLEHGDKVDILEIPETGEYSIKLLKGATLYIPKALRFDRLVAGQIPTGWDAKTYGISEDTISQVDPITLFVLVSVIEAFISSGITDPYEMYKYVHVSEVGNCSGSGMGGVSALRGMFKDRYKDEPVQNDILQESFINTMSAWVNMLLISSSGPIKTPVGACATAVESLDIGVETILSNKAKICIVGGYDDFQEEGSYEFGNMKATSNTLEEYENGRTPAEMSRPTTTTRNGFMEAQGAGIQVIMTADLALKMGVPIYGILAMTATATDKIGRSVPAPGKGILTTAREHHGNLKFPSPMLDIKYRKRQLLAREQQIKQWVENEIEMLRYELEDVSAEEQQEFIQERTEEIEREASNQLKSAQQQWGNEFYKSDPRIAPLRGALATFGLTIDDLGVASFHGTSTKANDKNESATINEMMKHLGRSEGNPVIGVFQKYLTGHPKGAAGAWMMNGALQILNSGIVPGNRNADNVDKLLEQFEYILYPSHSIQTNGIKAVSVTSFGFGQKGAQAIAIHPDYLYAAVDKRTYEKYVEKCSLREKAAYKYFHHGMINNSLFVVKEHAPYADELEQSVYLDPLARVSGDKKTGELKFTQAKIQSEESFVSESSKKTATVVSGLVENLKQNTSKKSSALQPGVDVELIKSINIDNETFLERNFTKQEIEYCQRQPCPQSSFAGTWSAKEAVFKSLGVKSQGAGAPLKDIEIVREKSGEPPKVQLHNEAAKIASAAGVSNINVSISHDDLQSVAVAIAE
T1 sequence (Q6CWN6 1-2047 partner): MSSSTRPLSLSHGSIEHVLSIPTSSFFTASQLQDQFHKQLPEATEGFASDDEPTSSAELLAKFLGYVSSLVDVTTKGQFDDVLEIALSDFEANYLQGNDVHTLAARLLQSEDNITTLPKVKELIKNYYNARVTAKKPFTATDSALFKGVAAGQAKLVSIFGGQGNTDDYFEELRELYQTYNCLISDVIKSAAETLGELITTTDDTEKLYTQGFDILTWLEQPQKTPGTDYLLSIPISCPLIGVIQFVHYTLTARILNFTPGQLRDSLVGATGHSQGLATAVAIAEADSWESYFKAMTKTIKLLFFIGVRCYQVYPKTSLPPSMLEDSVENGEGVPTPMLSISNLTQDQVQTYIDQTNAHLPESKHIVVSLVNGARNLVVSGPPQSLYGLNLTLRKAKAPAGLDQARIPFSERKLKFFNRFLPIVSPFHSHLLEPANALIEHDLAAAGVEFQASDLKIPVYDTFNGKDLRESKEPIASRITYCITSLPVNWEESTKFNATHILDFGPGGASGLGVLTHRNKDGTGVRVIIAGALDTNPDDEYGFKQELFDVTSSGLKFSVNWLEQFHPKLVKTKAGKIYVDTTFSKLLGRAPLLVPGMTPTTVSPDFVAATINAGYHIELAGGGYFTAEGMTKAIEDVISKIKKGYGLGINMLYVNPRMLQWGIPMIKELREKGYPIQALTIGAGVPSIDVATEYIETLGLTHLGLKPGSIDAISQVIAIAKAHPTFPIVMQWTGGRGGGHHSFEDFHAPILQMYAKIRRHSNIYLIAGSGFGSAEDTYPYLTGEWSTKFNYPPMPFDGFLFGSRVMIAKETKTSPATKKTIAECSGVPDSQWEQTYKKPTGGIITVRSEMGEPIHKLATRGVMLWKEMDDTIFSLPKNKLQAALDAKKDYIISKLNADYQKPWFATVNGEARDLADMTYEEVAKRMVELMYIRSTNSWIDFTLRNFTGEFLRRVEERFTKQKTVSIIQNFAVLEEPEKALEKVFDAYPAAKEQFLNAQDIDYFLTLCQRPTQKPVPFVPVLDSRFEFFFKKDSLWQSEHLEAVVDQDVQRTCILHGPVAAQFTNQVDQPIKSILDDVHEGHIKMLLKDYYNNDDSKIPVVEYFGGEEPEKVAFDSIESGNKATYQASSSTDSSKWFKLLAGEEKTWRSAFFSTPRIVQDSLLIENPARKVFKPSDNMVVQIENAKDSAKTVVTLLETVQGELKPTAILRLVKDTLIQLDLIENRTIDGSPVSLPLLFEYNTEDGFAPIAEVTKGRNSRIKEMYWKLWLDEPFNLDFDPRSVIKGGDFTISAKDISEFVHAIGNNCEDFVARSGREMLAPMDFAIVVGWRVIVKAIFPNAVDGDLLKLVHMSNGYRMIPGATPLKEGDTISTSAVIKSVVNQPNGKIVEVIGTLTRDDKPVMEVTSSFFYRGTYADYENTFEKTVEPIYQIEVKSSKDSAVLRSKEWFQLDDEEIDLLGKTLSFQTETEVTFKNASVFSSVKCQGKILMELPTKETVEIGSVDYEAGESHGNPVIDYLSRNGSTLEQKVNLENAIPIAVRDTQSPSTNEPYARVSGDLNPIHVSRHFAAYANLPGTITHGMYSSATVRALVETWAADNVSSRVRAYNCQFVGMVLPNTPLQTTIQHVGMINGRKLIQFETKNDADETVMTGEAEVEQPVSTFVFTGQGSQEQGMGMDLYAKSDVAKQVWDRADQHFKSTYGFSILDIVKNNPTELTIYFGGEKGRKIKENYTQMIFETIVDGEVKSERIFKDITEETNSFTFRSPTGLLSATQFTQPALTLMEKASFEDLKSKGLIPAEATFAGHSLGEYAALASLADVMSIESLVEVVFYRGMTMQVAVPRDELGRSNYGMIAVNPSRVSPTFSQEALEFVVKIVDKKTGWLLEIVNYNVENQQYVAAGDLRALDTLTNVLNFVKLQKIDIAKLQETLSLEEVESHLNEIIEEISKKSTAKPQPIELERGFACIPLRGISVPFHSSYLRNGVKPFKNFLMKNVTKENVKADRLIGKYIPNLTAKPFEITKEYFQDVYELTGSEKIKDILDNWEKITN

With `NC(=O)CI` [Iodoacetamide], the remaining activity at 1000 µM in test [1] (setting [4]) is 53.9%.

Take `O=C(O)C(=O)CCc1ccccc1` [Benzylpyruvic acid]: the Relative activity in test [2] (substrate 1 mM) is on record as 0%.

For `CCC1(CC)C(=O)NC(=O)NC1=O` [Diethylbarbituric acid], in test [1] (setting [4]), the remaining activity at 1000 µM is 82.5%.

On to `O=CC(=O)c1ccccc1` [Phenylglyoxal], for which the Relative activity in test [2] (substrate 0.5 mM) amounted to 0%.

Take `O=C1CN2CCC1CC2` [3-Quinuclidinone]: the Relative activity in test [2] (substrate 20 mM) was determined as 0.8%.

Turning to `C/C=C/C(=O)O` [Chlotonic acid], the remaining activity at 50000 µM in test [1] (inhibitor 50 mM, 30° C., 10 min, standard conditions = 100%, read-out: Residual activity) was found to be 87.7%.

`CCOC(=O)CC(C)=O` [Ethyl acetoacetate] returned a Relative activity in test [2] (substrate 20 mM) of 0%.

Consider `[Cl][Hg][Cl]` [Mercuric chloride], for which the “Inhibition of the enzyme (in words)” value in test [1] is “significantly inhibited”. The compound further returned a Residual activity in test [1] (inhibitor 0.01 mM, 30° C., 10 min, standard conditions = 100%) of 0.0%.

Compound `O=Cc1cccc([N+](=O)[O-])c1` [m-Nitrobenzaldehyde] gave a Relative activity in test [2] (substrate 0.2 mM) of 0.4%.

In test [2] (substrate 20 mM), `CCC=O` [Propionaldehyde] registered a Relative activity of 0%.

`CCOC(=O)CC(=O)CCl` [Ethyl 4-chloroacetoacetate]: the Relative activity in test [2] (substrate 20 mM) is 100%; in test [2] (substrate 20 mM, listed as Ethyl 4-chloroacetoaetate), 0%.

As for `O=c1c(O)c(-c2ccc(O)c(O)c2)oc2cc(O)cc(O)c12` [Quercetin], the remaining activity at 100 µM in test [1] (inhibitor 0.1 mM, 30° C., 10 min, standard conditions = 100%, read-out: Residual activity) was 68.1%.

For `O=C(O)c1cc[c]([Hg][Cl])cc1` [p-Chloromercuribenzoic acid], the “Inhibition of the enzyme (in words)” value is on record as “completely inhibited” in test [1] and “significantly inhibited” in test [1] (listed as p-chloromercuricbenzoic acid). The compound also gave a Residual activity in test [1] (inhibitor 0.05 mM, 30° C., 10 min, standard conditions = 100%) of 0.0%.

As for `CCOC(=O)C[C@H](O)CCl`, the Relative activity in test [3] is reported as 0%.

For `O=Cc1cccnc1` [Pyridine-3-aldehyde], in test [2] (substrate 20 mM), the Relative activity was 0%.

With `COC(=O)CC(=O)CCl` [Methyl 4-chloroacetoacetate], the “Reducing activity on substrate (in words)” value in test [2] is listed as “high activity”. This compound gave a Relative activity in test [2] (substrate 20 mM) of 66.3%.

For the compound `CCN1C(=O)C=CC1=O` [N-ethylmaleimide], the “Inhibition of the enzyme (in words)” value in test [1] is given as “inhibited”. Also, the remaining activity at 1000 µM in test [1] (setting [4]) turned out to be 20.1%.

With `O=C(O)CN(CCN(CC(=O)O)CC(=O)O)CC(=O)O` [Ethylenediaminetetraacetic acid], the remaining activity at 1000 µM in test [1] (read-out: Residual activity) was 98.4%.

In test [2] (substrate 20 mM), `COC(=O)CC(C)=O` [Methyl acetoacetate] yielded a Relative activity of 0%.

In the case of `CC(=O)CC(C)=O` [2,4-Pentanedione], the Relative activity in test [2] (substrate 20 mM) was 0%.

For `CC(=O)C(C)=O` [2,3-Butanedione], the Relative activity in test [2] (substrate 20 mM) stood at 4.2%.

In turn, `O=C[C@H](O)[C@@H](O)[C@H](O)CO` [Xylose] had a Relative activity in test [2] (substrate 20 mM) of 0%.

Compound `O=C1Nc2ccccc2C1=O` [Isatine] showed a Relative activity in test [2] (substrate 0.4 mM) of 0%.

As to `C=CC(C)=O` [Methyl vinyl ketone], the “Inhibition of the enzyme (in words)” value in test [1] is “inhibited”. Moreover, the remaining activity at 10000 µM in test [1] (inhibitor 10 mM, 30° C., 10 min, standard conditions = 100%, read-out: Residual activity) was determined as 26.3%.

Compound `CCOC(=O)C(=O)CCc1ccccc1` displayed a Relative activity in test [2] (substrate 20 mM) of 0%.

Take `c1cnc2c(c1)ccc1cccnc12` [o-Phenanthroline]: the remaining activity at 1000 µM in test [1] (setting [4]) is 88.3%.

In the case of `CCC(=O)C(C)=O` [2,3-Pentanedione], in test [2], the “Reducing activity on substrate (in words)” value is reported as “high activity”. In test [2] (substrate 20 mM), this compound registered a Relative activity of 44.2%.

Take `O=S(=O)([O-])[O-].[Cu+2]` [Copper sulfate]: the “Inhibition of the enzyme (in words)” value in test [1] is “inhibited”; in test [1] (listed as cupric sulfate), “significantly inhibited”. Also, the Residual activity in test [1] (setting [5]) is 0.0%.

Consider `CC(=O)CCO` [4-Hydroxy-2-butanone], for which the Relative activity in test [2] (substrate 20 mM) was 0%.

With `O=Cc1ccc([N+](=O)[O-])cc1` [p-Nitrobenzaldehyde], the Relative activity in test [2] (substrate 0.2 mM) is reported as 0%.

On to `O=Cc1ccccc1[N+](=O)[O-]` [o-Nitrobenzaldehyde], for which the Relative activity in test [2] (substrate 0.2 mM) is 0%.

`CC(=O)c1ccccc1` [Acetophenone] returned a Relative activity in test [2] (substrate 20 mM) of 0%.

In the case of `O=S(=O)([O-])[O-].[Zn+2]` [Zinc sulfate], in test [1], the “Inhibition of the enzyme (in words)” value was “inhibited”. This compound also came in with a Residual activity in test [1] (setting [5]) of 12.2%.

In the case of `CC(=O)C=O` [Methylglyoxal], the Relative activity in test [2] (substrate 20 mM) worked out at 1.8%.

`CC(=O)COC(C)=O` [Acetoxy-2-propanone] returned a Relative activity in test [2] (substrate 20 mM) of 0%.

In the case of `CCOC(=O)C[C@@H](O)CCl` [Ethyl (R)-4-chloro-3-hydroxy-acetate], the Relative activity in test [3] worked out at 0%.

For `O=S(=O)(F)Cc1ccccc1` [Phenylmethanesulfonyl fluoride], the Residual activity in test [1] (setting [5]) is on record as 89.4%.
